Results: patent publication US12679860B2, “C-terminal HSP90 inhibitors” (UNIVERSITY OF KANSAS, priority 2012, dated 2026)

Tested on: embryonic dorsal root ganglion (DRG) sensory neuron cultures
Experiment: Glucotoxicity assay: cell viability (calcein AM) of DRG sensory neurons under glucose-induced toxicity
Type: cell-based, Sprague Dawley rat
Conditions: for viability at 1 µM / EC50: Rattus norvegicus, Neuron; for viability at 1 µM: glucose + DMSO was 54% ± 2; for EC50: 0.1-1000 nM novologue overnight, then 4 hrs of hyperglycemia, mean±SEM (n=3-8), read-out: EC50 for protection against glucose-induced toxicity
Method: DRG sensory neurons were incubated in the absence or presence of 0.1-1000 nM of the indicated novologue overnight and then subjected to 4 hrs of hyperglycemia.
The ganglia were sedimented at 1,000×g for 5 min, resuspended in growth media [phenol red free Neurobasal medium (Gibco, Grand Island, NY) containing 25 mM glucose, 1X B-27 additive, 50 ng/ml NGF (Harlan Bioscience, Indianapolis, IN), 4 mM glutamine, 100 U/mL penicillin and 100 μg/mL streptomycin] and triturated with a fire-polished glass pipette. The cells were cultured on collagen-coated (0.1 mg/mL collagen followed by overnight air drying in a laminar flow hood) black-walled 96-well plates (Corning Incorporated Corning, NY) at a seeding density of 2-3×10^4 cells per well. DRG neurons were re-fed the next day with fresh growth media containing 40 μM fluorodeoxyuridine and 10 μM cytosine β-D-arabinoside (both from Sigma Aldrich, St. Louis, MO) for 2 days to remove proliferating cells. Experiments were performed on DRG neurons on the third day in culture after placing the cells in fresh growth medium. […]
DRG neurons were incubated overnight with the test compounds in the presence of Neurobasal medium, 50 ng/ml NGF and antibiotics only. In order to monitor the efficiency of the compounds in protecting DRG neurons against glucotoxicity, Calcein AM (Invitrogen, Carlsbad, CA) was utilized to measure cell viability. Hydrolysis of calcein AM to a fluorescent product can only occur in live cells. Excess glucose was added to the cultures for 4 hrs and cell viability was measured by incubating the cells with 2 μM calcein AM for 30 min in the dark at 37° C. Fluorescence was then measured using a plate reader with excitation and emission wavelengths set to 485 nm and 520 nm, respectively. The arbitrary fluorescence readings were normalized to the total amount of protein from each respective well of the neuronal cultures. The protein concentrations in each well were determined using the DC protein assay (Bio-Rad). Significant differences in the efficacy of the novologues for increasing cell viability were determined using a Kruskal-Wallis non-parametric ANOVA and Dunn's post-test.

[1] = Table 1, 1 μM of each novologue + 20 mM excess glucose
[2] = 1 μM novologue + 20 mM excess glucose
[3] = Table 2 cyclohexene analogues, 1 μM novologue + 20 mM excess glucose

SMILES | viability at 1 µM [1] | protection against glucose-induced toxicity (in words) [2] | further results
CO[C@@H]1[C@@H](O)[C@@H](O)C(Oc2ccc(CCNC(C)=O)c(-c3ccncc3)c2)OC1(C)C (stereo partly drawn) [11p, N-(4-(((3R,4S,5R)-3,4-dihydroxy-5-methoxy-6,6-dimethyltetrahydro-2H-pyran-2-yl)oxy)-2-(pyridin-4-yl)phenethyl)acetamide] | 81% |  | 
CO[C@@H]1[C@@H](O)[C@@H](O)C(Oc2ccc(CCNC(C)=O)c(-c3ccc(F)cc3)c2)OC1(C)C (stereo partly drawn) [11c, N-(2-(5-(((3R,4S,5R)-3,4-dihydroxy-5-methoxy-6,6-dimethyltetrahydro-2H-pyran-2-yl)oxy)-4′-fluoro-[1,1′-biphenyl]-2-yl)ethyl)acetamide] | 75% | showed significant protection against glucose-induced cell death | 
CO[C@@H]1[C@@H](O)[C@@H](O)C(Oc2ccc(CCNC(C)=O)c(-c3cccc(C)c3)c2)OC1(C)C (stereo partly drawn) [11k, N-(2-(5-(((3R,4S,5R)-3,4-dihydroxy-5-methoxy-6,6-dimethyltetrahydro-2H-pyran-2-yl)oxy)-3′-methyl-[1,1′-biphenyl]-2-yl)ethyl)acetamide] | 82% |  | 
CO[C@@H]1[C@@H](O)[C@@H](O)[C@H](Oc2ccc(C3CC=CCC3NC(C)=O)c(-c3cccc(F)c3)c2)OC1(C)C (mixture of isomers) [20a, N-(4′-(((3R,4S,5R)-3,4-dihydroxy-5-methoxy-6,6-dimethyltetrahydro-2H-pyran-2-yl)oxy)-3″-fluoro-1,2,3,6-tetrahydro-[1,1′: 2′,1″-terphenyl]-2-yl)acetamide] |  |  | viability at 1 µM [3]: 78%
CO[C@@H]1[C@@H](O)[C@@H](O)C(Oc2ccc(CCNC(C)=O)c(-c3ccc(O)cc3)c2)OC1(C)C (stereo partly drawn) [11m, N-(2-(5-(((3R,4S,5R)-3,4-dihydroxy-5-methoxy-6,6-dimethyltetrahydro-2H-pyran-2-yl)oxy)-4′-hydroxy-[1,1′-biphenyl]-2-yl)ethyl)acetamide] | 67% |  | 
CO[C@@H]1[C@@H](O)[C@@H](O)C(Oc2ccc(CCNC(C)=O)c(-c3cccnc3)c2)OC1(C)C (stereo partly drawn) [11o, N-(4-(((3R,4S,5R)-3,4-dihydroxy-5-methoxy-6,6-dimethyltetrahydro-2H-pyran-2-yl)oxy)-2-(pyridin-3-yl)phenethyl)acetamide] | 61% | unable to protect against glucose-induce toxicity | 
CO[C@@H]1[C@@H](O)[C@@H](O)C(Oc2ccc(CCNC(C)=O)c(-c3ccccc3Cl)c2)OC1(C)C (stereo partly drawn) [11d, N-(2-(2′-chloro-5-(((3R,4S,5R)-3,4-dihydroxy-5-methoxy-6,6-dimethyltetrahydro-2H-pyran-2-yl)oxy)-[1,1′-biphenyl]-2-yl)ethyl)acetamide] | 71% | showed significant protection against glucose-induced cell death | 
CO[C@@H]1[C@@H](O)[C@@H](O)[C@H](Oc2ccc(C3CC=CCC3NC(C)=O)c(-c3cccc(C(F)(F)F)c3)c2)OC1(C)C (mixture of isomers) [20b, N-(4′-(((3R,4S,5R)-3,4-dihydroxy-5-methoxy-6,6-dimethyltetrahydro-2H-pyran-2-yl)oxy)-3″-(trifluoromethyl)-1,2,3,6-tetrahydro-[1,1′: 2′,1″-terphenyl]-2-yl) acetamide] |  |  | viability at 1 µM [3]: 69%
COc1cccc(-c2cc(OC3OC(C)(C)[C@H](OC)[C@@H](O)[C@H]3O)ccc2CCNC(C)=O)c1 (stereo partly drawn) [11j, N-(2-(5-(((3R,4S,5R)-3,4-dihydroxy-5-methoxy-6,6-dimethyltetrahydro-2H-pyran-2-yl)oxy)-3′-methoxy-[1,1′-biphenyl]-2-yl)ethyl)acetamide] | 78% |  | 
CO[C@@H]1[C@@H](O)[C@@H](O)C(Oc2ccc(CCNC(C)=O)c(-c3ccccc3SC)c2)OC1(C)C (stereo partly drawn) [11h, N-(2-(5-(((3R,4S,5R)-3,4-dihydroxy-5-methoxy-6,6-dimethyltetrahydro-2H-pyran-2-yl)oxy)-2′-(methylthio)-[1,1′-biphenyl]-2-yl)ethyl)acetamide] | 83% |  | EC50: 384 ± 108 nM; EC50 fold greater than KU-32 (protection against glucose-induced toxicity): approximately 1.6 fold
CO[C@@H]1[C@@H](O)[C@@H](O)C(Oc2ccc(CCNC(C)=O)c(-c3ccc(C(F)(F)F)cc3)c2)OC1(C)C (stereo partly drawn) [11g, N-(2-(5-(((3R,4S,5R)-3,4-dihydroxy-5-methoxy-6,6-dimethyltetrahydro-2H-pyran-2-yl)oxy)-4′-(trifluoromethyl)-[1,1′-biphenyl]-2-yl)ethyl)acetamide] | 74% | showed significant protection against glucose-induced cell death | 
CO[C@@H]1[C@@H](O)[C@@H](O)C(Oc2ccc(CCNC(C)=O)c(-c3cccc(Cl)c3)c2)OC1(C)C (stereo partly drawn) [11e, N-(2-(3′-chloro-5-(((3R,4S,5R)-3,4-dihydroxy-5-methoxy-6,6-dimethyltetrahydro-2H-pyran-2-yl)oxy)-[1,1′-biphenyl]-2-yl)ethyl)acetamide] | 90% | showed significant protection against glucotoxicity | 
CO[C@@H]1[C@@H](O)[C@@H](O)C(Oc2ccc(CCNC(C)=O)c(-c3cccc(C(F)(F)F)c3)c2)OC1(C)C (stereo partly drawn) [11f, N-(2-(5-(((3R,4S,5R)-3,4-dihydroxy-5-methoxy-6,6-dimethyltetrahydro-2H-pyran-2-yl)oxy)-3′-(trifluoromethyl)-[1,1′-biphenyl]-2-yl)ethyl)acetamide] | 83% | showed significant protection against glucotoxicity | EC50: 188 ± 43.5 nM
COc1ccccc1-c1cc(OC2OC(C)(C)[C@H](OC)[C@@H](O)[C@H]2O)ccc1CCNC(C)=O (stereo partly drawn) [11i, N-(2-(5-(((3R,4S,5R)-3,4-dihydroxy-5-methoxy-6,6-dimethyltetrahydro-2H-pyran-2-yl)oxy)-2′-methoxy-[1,1′-biphenyl]-2-yl)ethyl)acetamide] | 92% |  | 
CO[C@@H]1[C@@H](O)[C@@H](O)C(Oc2ccc(CCNC(C)=O)c(-c3ccccc3)c2)OC1(C)C (stereo partly drawn) [11a, N-(2-(5-(((3R,4S,5R)-3,4-dihydroxy-5-methoxy-6,6-dimethyltetrahydro-2H-pyran-2-yl)oxy)-[1,1′-biphenyl]-2-yl)ethyl)acetamide] | 76% |  | 
CO[C@@H]1[C@@H](O)[C@@H](O)C(Oc2ccc(CCNC(C)=O)c(-c3cccc(CN4CCOCC4)c3)c2)OC1(C)C (stereo partly drawn) [11l, N-(2-(5-(((3R,4S,5R)-3,4-dihydroxy-5-methoxy-6,6-dimethyltetrahydro-2H-pyran-2-yl)oxy)-3′-(morpholinomethyl)-[1,1′-biphenyl]-2-yl)ethyl)acetamide] | 83% |  | 
